# In ChEMBL document CHEMBL1201861, “Genomics of Drug Sensitity in Cancer screening data, Wellcome Trust Sanger Institute”:
# Columns and labels:
# COLO-678 = experiment: cells; type: functional, cell-based; conditions: Homo sapiens
# Description: SANGER: Inhibition of human COLO-678 cell growth in a cell viability assay.
# CHL-1 = experiment: cells; type: functional, cell-based; conditions: Homo sapiens;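 further: cell growth inhibition, read out with a cell viability assay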
# Description: SANGER: Inhibition of human CHL-1 cell growth in a cell viability assay.
# NCI-H1703 = experiment: cells; type: functional, cell-based; conditions: Homo sapiens;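 further: growth inhibition of NCI-H1703 cells, read out via a cell viability assay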
# Description: SANGER: Inhibition of human NCI-H1703 cell growth in a cell viability assay.
# G-361 = experiment: cells; type: functional, cell-based; conditions: Homo sapiens
# HGC-27 = experiment: cells; type: functional, cell-based; conditions: Homo sapiens;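 further: growth inhibition of human HGC-27 cells, read out in a cell viability assay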
# Description: SANGER: Inhibition of human HGC-27 cell growth in a cell viability assay.
# WM-115 = experiment: cells; type: functional, cell-based; conditions: Homo sapiens
# Description: SANGER: Inhibition of human WM-115 cell growth in a cell viability assay.
# NB1 = experiment: cells; type: functional, cell-based, Homo sapiens; conditions: Homo sapiens, NB1
# Description: SANGER: Inhibition of human NB1 cell growth in a cell viability assay.
# HOS = experiment: cells; type: functional, cell-based; conditions: Homo sapiens;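 further: growth inhibition of human HOS cells, read out with a cell viability assay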
# Description: SANGER: Inhibition of human HOS cell growth in a cell viability assay.
# DU-145 = experiment: cells; type: functional, cell-based; conditions: Homo sapiens
# Description: SANGER: Inhibition of human DU-145 cell growth in a cell viability assay.
# SK-MEL-24 = experiment: cells; type: functional, cell-based; conditions: Homo sapiens;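 further: growth inhibition read out by a cell viability assay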
# Description: SANGER: Inhibition of human SK-MEL-24 cell growth in a cell viability assay.
# SW1088 = experiment: cells; type: functional, cell-based; conditions: Homo sapiens;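 further: growth inhibition of human SW1088 cells, read out by a cell viability assay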
# Description: SANGER: Inhibition of human SW1088 cell growth in a cell viability assay.
# UMUC3 = experiment: cells; type: functional, cell-based; conditions: Homo sapiens;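 further: growth inhibition of human UM-UC-3 cells, read out with a cell viability assay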
# Description: SANGER: Inhibition of human UM-UC-3 cell growth in a cell viability assay.
# MHH-CALL-2 = experiment: cells; type: functional, cell-based, Homo sapiens; conditions: Homo sapiens, MHH-CALL-2;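 further: growth inhibition of the cell line, read out in a cell viability assay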
# Description: SANGER: Inhibition of human MHH-CALL-2 cell growth in a cell viability assay.
# AN3-CA = experiment: cells; type: functional, cell-based; conditions: Homo sapiens;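 further: growth inhibition of human AN3-CA cells measured by a cell viability assay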
# Description: SANGER: Inhibition of human AN3-CA cell growth in a cell viability assay.
# NCI-H727 = experiment: cells; type: functional, cell-based; conditions: Homo sapiens;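 further: growth inhibition of human NCI-H727 cells, read out with a cell viability assay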
# Description: SANGER: Inhibition of human NCI-H727 cell growth in a cell viability assay.
# AGS = experiment: cells; type: functional, cell-based; conditions: Homo sapiens;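 further: growth inhibition of AGS cells, determined with a cell viability assay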
# Description: SANGER: Inhibition of human AGS cell growth in a cell viability assay.
# TCC-SUP = experiment: cells; type: functional, cell-based; conditions: Homo sapiens;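 further: growth inhibition of TCC-SUP cells, read out with a cell viability assay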
# Description: SANGER: Inhibition of human TCCSUP cell growth in a cell viability assay.
# KMS-12-PE = experiment: cells; type: functional, cell-based, Homo sapiens; conditions: Homo sapiens, KMS-12-PE;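 further: growth inhibition of human KMS-12-PE cells, measured with a cell viability assay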
# Description: SANGER: Inhibition of human KMS-12-PE cell growth in a cell viability assay.
# HCC38 = experiment: cells; type: functional, cell-based; conditions: Homo sapiens;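 further: cell viability assay on the human HCC38 cell line, with IC50 marking the concentration that inhibits cell growth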
# Description: SANGER: Inhibition of human HCC38 cell growth in a cell viability assay.
# SF-295 = experiment: cells; type: functional, cell-based; conditions: Homo sapiens;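 further: growth inhibition of SF-295 cells, read out with a cell viability assay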
# Description: SANGER: Inhibition of human SF295 cell growth in a cell viability assay.
# CP66-MEL = experiment: cells; type: functional, cell-based; conditions: Homo sapiens;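 further: growth inhibition of CP66-MEL cells determined in a cell viability assay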
# Description: SANGER: Inhibition of human CP66-MEL cell growth in a cell viability assay.
# HOP-92 = experiment: cells; type: functional, cell-based; conditions: Homo sapiens;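 further: cell viability readout, with IC50 reflecting inhibition of HOP-92 cell growth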
# Description: SANGER: Inhibition of human HOP-92 cell growth in a cell viability assay.
# COR-L279 = experiment: SANGER: Inhibition of human COR-L279 cell growth in a cell viability assay.; type: functional, cell-based; conditions: Homo sapiens, COR-L279
# LC-1F = experiment: cells; type: functional, cell-based, Homo sapiens; conditions: Homo sapiens, LC-1F;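 further: growth inhibition of human LC-1F cells, read out with a cell viability assay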
# Description: SANGER: Inhibition of human LC-1F cell growth in a cell viability assay.
# EC-GI-10 = experiment: cells; type: functional, cell-based, Homo sapiens; conditions: Homo sapiens, EC-GI-10
# Description: SANGER: Inhibition of human EC-GI-10 cell growth in a cell viability assay.
# SiHa = experiment: cells; type: functional, cell-based; conditions: Homo sapiens;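 further: Viability-based readout of growth inhibition in SiHa cells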
# Description: SANGER: Inhibition of human SiHa cell growth in a cell viability assay.
# EVSA-T = experiment: cells; type: functional, cell-based, Homo sapiens; conditions: Homo sapiens, EVSA-T;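 further: growth inhibition of EVSA-T cells, read out with a cell viability assay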
# Description: SANGER: Inhibition of human EVSA-T cell growth in a cell viability assay.
# HSC-3 = experiment: cells; type: functional, cell-based; conditions: Homo sapiens
# Description: SANGER: Inhibition of human HSC-3 cell growth in a cell viability assay.
# RPMI 8402 = experiment: SANGER: Inhibition of human RPMI-8402 cell growth in a cell viability assay.; type: functional, cell-based; conditions: Homo sapiens, RPMI 8402
# HCC1599 = experiment: cells; type: functional, cell-based, Homo sapiens; conditions: Homo sapiens, HCC1599;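 further: growth inhibition of HCC1599 cells, read out in a cell viability assay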
# Description: SANGER: Inhibition of human HCC1599 cell growth in a cell viability assay.
# UACC-62 = experiment: cells; type: functional, cell-based; conditions: Homo sapiens;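 further: growth inhibition of human UACC-62 cells, read out by a cell viability assay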
# Description: SANGER: Inhibition of human UACC-62 cell growth in a cell viability assay.
# SK-MEL-28 = experiment: cells; type: functional, cell-based; conditions: Homo sapiens;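 further: growth inhibition of human SK-MEL-28 cells, read out with a cell viability assay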
# Description: SANGER: Inhibition of human SK-MEL-28 cell growth in a cell viability assay.
# NCI-H1623 = experiment: cells; type: functional, cell-based; conditions: Homo sapiens;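 further: cell viability assay used as the read-out for growth inhibition of NCI-H1623 cells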
# Description: SANGER: Inhibition of human NCI-H1623 cell growth in a cell viability assay.
# CAMA-1 = experiment: cells; type: functional, cell-based; conditions: Homo sapiens;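 further: growth inhibition of CAMA-1 cells, read out with a cell viability assay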
# Description: SANGER: Inhibition of human CAMA-1 cell growth in a cell viability assay.
# OE19 = experiment: cells; type: functional, cell-based; conditions: Homo sapiens;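 further: growth inhibition of OE19 cells, measured through a cell viability read-out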
# Description: SANGER: Inhibition of human OE19 cell growth in a cell viability assay.
# MDA-MB-415 = experiment: cells; type: functional, cell-based; conditions: Homo sapiens
# NY = experiment: cells; type: functional, cell-based; conditions: Homo sapiens
# Description: SANGER: Inhibition of human NY cell growth in a cell viability assay.
# SNU-423 = experiment: cells; type: functional, cell-based; conditions: Homo sapiens
# Description: SANGER: Inhibition of human SNU-423 cell growth in a cell viability assay.
# BHY = experiment: cells; type: functional, cell-based; conditions: Homo sapiens;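 further: cell growth inhibition read out by a viability assay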
# Description: SANGER: Inhibition of human BHY cell growth in a cell viability assay.
# NCI-H2122 = experiment: cells; type: functional, cell-based; conditions: Homo sapiens;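 further: growth inhibition of the cells, read out with a cell viability assay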
# Description: SANGER: Inhibition of human NCI-H2122 cell growth in a cell viability assay.
# SK-MEL-30 = experiment: cells; type: functional, cell-based; conditions: Homo sapiens;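 further: growth inhibition of SK-MEL-30 cells, determined with a cell viability assay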
# Description: SANGER: Inhibition of human SK-MEL-30 cell growth in a cell viability assay.
# H4 = experiment: cells; type: functional, cell-based; conditions: Homo sapiens
# Description: SANGER: Inhibition of human H4 cell growth in a cell viability assay.
# SW948 = experiment: cells; type: functional, cell-based; conditions: Homo sapiens;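 further: growth inhibition of SW948 cells, read out with a cell viability assay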
# Description: SANGER: Inhibition of human SW948 cell growth in a cell viability assay.
# SK-N-AS = experiment: cells; type: functional, cell-based; conditions: Homo sapiens;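 further: growth inhibition of human SK-N-AS cells, measured with a cell viability assay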
# Description: SANGER: Inhibition of human SK-N-AS cell growth in a cell viability assay.
# NB12 = experiment: cells; type: functional, cell-based; conditions: Homo sapiens;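 further: growth inhibition of human NB12 cells, read out by a cell viability assay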
# Description: SANGER: Inhibition of human NB12 cell growth in a cell viability assay.
# ABC-1 = experiment: cells; type: functional, cell-based; conditions: Homo sapiens;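 further: growth inhibition of human ABC-1 cells, read out by a cell viability assay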
# Description: SANGER: Inhibition of human ABC-1 cell growth in a cell viability assay.
# CESS = experiment: SANGER: Inhibition of human CESS cell growth in a cell viability assay.; type: functional, cell-based; conditions: Homo sapiens, CESS
# MDA-MB-134-VI = experiment: cells; type: functional, cell-based, Homo sapiens; conditions: Homo sapiens, MDA-MB-134-VI
# Description: SANGER: Inhibition of human MDA-MB-134-VI cell growth in a cell viability assay.
# CAL-54 = experiment: cells; type: functional, cell-based; conditions: Homo sapiens;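 further: growth inhibition of CAL-54 cells, read out by a viability measurement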
# Description: SANGER: Inhibition of human CAL-54 cell growth in a cell viability assay.
# CAL-72 = experiment: cells; type: functional, cell-based; conditions: Homo sapiens;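 further: cell viability assay measuring inhibition of proliferation in the CAL-72 cell line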
# Description: SANGER: Inhibition of human CAL-72 cell growth in a cell viability assay.
# Ca9-22 = experiment: cells; type: functional, cell-based; conditions: Homo sapiens;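 further: growth inhibition of Ca9-22 cells, read out with a cell viability assay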
# Description: SANGER: Inhibition of human Ca9-22 cell growth in a cell viability assay.
# NCI-H1573 = experiment: cells; type: functional, cell-based; conditions: Homo sapiens;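 further: growth inhibition of NCI-H1573 cells, read out with a cell viability assay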
# Description: SANGER: Inhibition of human NCI-H1573 cell growth in a cell viability assay.
# ECC4 = experiment: cells; type: functional, cell-based, Homo sapiens; conditions: Homo sapiens, ECC4;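 further: growth inhibition of ECC4 cells, read out with a cell viability assay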
# Description: SANGER: Inhibition of human ECC4 cell growth in a cell viability assay.
# C3A = experiment: cells; type: functional, cell-based; conditions: Homo sapiens;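 further: growth inhibition of C3A human cells, quantified with a cell viability readout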
# Description: SANGER: Inhibition of human C3A cell growth in a cell viability assay.
# SJRH30 = experiment: cells; type: functional, cell-based; conditions: Homo sapiens;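 further: growth inhibition of human SJRH30 cells, read out with a cell viability assay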
# Description: SANGER: Inhibition of human SJRH30 cell growth in a cell viability assay.
# GAMG = experiment: cells; type: functional, cell-based; conditions: Homo sapiens;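 further: cell growth inhibition measured by a viability assay in the GAMG human cell line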
# Description: SANGER: Inhibition of human GAMG cell growth in a cell viability assay.
# YT = experiment: cells; type: functional, cell-based, Homo sapiens; conditions: Homo sapiens, YT
# Description: SANGER: Inhibition of human YT cell growth in a cell viability assay.
# HCC1937 = experiment: cells; type: functional, cell-based; conditions: Homo sapiens;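 further: growth inhibition measured with a cell viability read-out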
# Description: SANGER: Inhibition of human HCC1937 cell growth in a cell viability assay.
# LC4-1 = experiment: cells; type: functional, cell-based, Homo sapiens; conditions: Homo sapiens, LC4-1;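 further: growth inhibition of LC4-1 cells, read out with a cell viability assay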
# Description: SANGER: Inhibition of human LC4-1 cell growth in a cell viability assay.
# HTC-C3 = experiment: cells; type: functional, cell-based; conditions: Homo sapiens;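 further: inhibition of cell growth, read out with a cell viability assay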
# Description: SANGER: Inhibition of human HTC-C3 cell growth in a cell viability assay.
# HuO9 = experiment: cells; type: functional, cell-based; conditions: Homo sapiens;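 further: growth inhibition of HuO9 cells, read out with a cell viability assay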
# Description: SANGER: Inhibition of human HuO9 cell growth in a cell viability assay.
compound,measurement,setting,value
CCCCCCCCCCCC1=C(O)C(=O)C=C(O)C1=O [EMBELIN],IC50,COLO-678,> 32 µM
same,IC50,CHL-1,4.7 µM
same,IC50,NCI-H1703,19.1 µM
same,IC50,G-361,5.9 µM
same,IC50,HGC-27,7.95 µM
same,IC50,WM-115,13.8 µM
same,IC50,NB1,> 32 µM
same,IC50,HOS,15.3 µM
same,IC50,DU-145,8.76 µM
same,IC50,SK-MEL-24,4.67 µM
same,IC50,SW1088,16.7 µM
same,IC50,UMUC3,10.1 µM
same,IC50,MHH-CALL-2,> 32 µM
same,IC50,AN3-CA,6.25 µM
same,IC50,NCI-H727,7.88 µM
same,IC50,AGS,8.63 µM
same,IC50,TCC-SUP,11.6 µM
same,IC50,KMS-12-PE,> 32 µM
same,IC50,HCC38,17.9 µM
same,IC50,SF-295,1.75 µM
same,IC50,CP66-MEL,4.51 µM
same,IC50,HOP-92,7.88 µM
same,IC50,COR-L279,> 32 µM
same,IC50,LC-1F,31.2 µM
same,IC50,EC-GI-10,> 32 µM
same,IC50,SiHa,> 32 µM
same,IC50,EVSA-T,> 32 µM
same,IC50,HSC-3,23.9 µM
same,IC50,RPMI 8402,4.05 µM
same,IC50,HCC1599,9.04 µM
same,IC50,UACC-62,1.75 µM
same,IC50,SK-MEL-28,8.48 µM
same,IC50,NCI-H1623,25.4 µM
same,IC50,CAMA-1,7.09 µM
same,IC50,OE19,29.7 µM
same,IC50,MDA-MB-415,30 µM
same,IC50,NY,4.8 µM
same,IC50,SNU-423,> 32 µM
same,IC50,BHY,6.03 µM
same,IC50,NCI-H2122,2.81 µM
same,IC50,SK-MEL-30,12.8 µM
same,IC50,H4,4.13 µM
same,IC50,SW948,> 32 µM
same,IC50,SK-N-AS,13.8 µM
same,IC50,NB12,8.23 µM
same,IC50,ABC-1,> 32 µM
same,IC50,CESS,6.24 µM
same,IC50,MDA-MB-134-VI,> 32 µM
same,IC50,CAL-54,20.4 µM
same,IC50,CAL-72,10.4 µM
same,IC50,Ca9-22,12.4 µM
same,IC50,NCI-H1573,14.2 µM
same,IC50,ECC4,23.8 µM
same,IC50,C3A,15.4 µM
same,IC50,SJRH30,7.97 µM
same,IC50,GAMG,9.09 µM
same,IC50,YT,12.8 µM
same,IC50,HCC1937,8.63 µM
same,IC50,LC4-1,> 32 µM
same,IC50,HTC-C3,12.8 µM
CS(=O)(=O)N1CCN(Cc2cc3nc(-c4cccc5[nH]ncc45)nc(N4CCOCC4)c3s2)CC1 [PICTILISIB],IC50,COLO-678,> 4 µM
same,IC50,CHL-1,0.379 µM
same,IC50,HGC-27,0.213 µM
same,IC50,WM-115,1.07 µM
same,IC50,HOS,1.98 µM
same,IC50,DU-145,> 4 µM
same,IC50,SK-MEL-24,> 4 µM
same,IC50,SW1088,2.49 µM
same,IC50,UMUC3,> 4 µM
same,IC50,AN3-CA,0.34 µM
same,IC50,NCI-H727,> 4 µM
same,IC50,AGS,3.62 µM
same,IC50,TCC-SUP,> 4 µM
same,IC50,HCC38,> 4 µM
same,IC50,SF-295,2.32 µM
same,IC50,HOP-92,2.75 µM
same,IC50,HuO9,0.206 µM
same,IC50,SiHa,> 4 µM
same,IC50,HSC-3,0.84 µM
same,IC50,UACC-62,> 4 µM
same,IC50,SK-MEL-28,1.56 µM
same,IC50,NCI-H1623,0.304 µM
same,IC50,CAMA-1,> 4 µM
same,IC50,OE19,> 4 µM
same,IC50,MDA-MB-415,1.49 µM
same,IC50,NY,> 4 µM
same,IC50,SNU-423,2.4 µM
same,IC50,BHY,3.26 µM
same,IC50,NCI-H2122,> 4 µM
same,IC50,SK-MEL-30,> 4 µM
same,IC50,H4,0.851 µM
same,IC50,SW948,> 4 µM
same,IC50,SK-N-AS,> 4 µM
same,IC50,NB12,2.85 µM
same,IC50,ABC-1,> 4 µM
same,IC50,CAL-54,1.07 µM
same,IC50,CAL-72,> 4 µM
same,IC50,Ca9-22,> 4 µM
same,IC50,NCI-H1573,> 4 µM
same,IC50,C3A,> 4 µM
same,IC50,SJRH30,> 4 µM
same,IC50,GAMG,0.371 µM
same,IC50,HCC1937,> 4 µM
same,IC50,HTC-C3,3.29 µM
CO[C@@H]1[C@H](N(C)C(=O)c2ccccc2)C[C@H]2O[C@]1(C)n1c3ccccc3c3c4c(c5c6ccccc6n2c5c31)C(=O)NC4 [MIDOSTAURIN],IC50,G-361,0.209 µM
same,IC50,HGC-27,> 0.512 µM
same,IC50,DU-145,0.319 µM
same,IC50,AN3-CA,0.322 µM
same,IC50,SF-295,0.273 µM
same,IC50,HOP-92,> 0.512 µM
same,IC50,COR-L279,> 0.512 µM
same,IC50,HSC-3,> 0.512 µM
same,IC50,RPMI 8402,> 0.512 µM
same,IC50,NCI-H2122,0.323 µM
same,IC50,H4,0.14 µM
same,IC50,CESS,> 0.512 µM
same,IC50,CAL-54,0.209 µM
same,IC50,SJRH30,> 0.512 µM
